# Reference: PubChem BioAssay AID608 (Sanford-Burnham Center for Chemical Genomics, 2007)
# The source made the active and inactive calls. No rule for the calls is given here.
# Target: Peptidyl-prolyl cis-trans isomerase FKBP1A (Homo sapiens) (UniProt P62942)
# Experiment: FKBP12 binders, biophysical, NMR detection (AID 608)
# Settings: NMR binding, purified FKBP12
# Peptidyl-prolyl cis-trans isomerase FKBP1A (Homo sapiens), sequence (P62942 whole entry, looked up): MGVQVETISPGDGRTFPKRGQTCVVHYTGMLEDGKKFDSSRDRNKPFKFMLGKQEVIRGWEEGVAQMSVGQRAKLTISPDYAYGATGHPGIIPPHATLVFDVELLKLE
row,SMILES,Kd
1,CC(=O)OCC[C@H](C)CCC=C(C)C,> 4 mM (inactive)
2,O=C(O)CN1CCN(C2CCCC2)CC1,> 4 mM (inactive)
3,CC(=O)O[C@H]1CC[C@@]2(C)C(C[C@@H](OC(C)=O)[C@@]3(C)C4=CC(=O)O[C@@H](c5ccoc5)[C@]4(C)CCC23)C1(C)C (some centres not stated),> 4 mM (inactive)
4,O=C(CSc1cccc2cccnc12)N1CCOCC1,inactive
5,c1cncc(Nc2nc(-c3ccncc3)cs2)c1,> 4 mM (inactive)
6,CC(=O)Nc1cccs1,> 4 mM (inactive)
7,Cn1c(SCC(N)=O)nc2c1c(=O)[nH]c(=O)n2C,> 4 mM (inactive)
8,NC1=NN(c2ccccc2)C(=O)C1,> 4 mM (inactive)
9,NCCC(=O)N[C@@H](Cc1cnc[nH]1)C(=O)O,> 4 mM (inactive)
10,Cc1ccc(NC(=O)C(=O)Nc2ccccn2)cc1,> 4 mM (inactive)
11,Cc1csc(NC(=O)c2ccoc2C)n1,> 4 mM (inactive)
12,Cn1c(=O)c2c([nH]c(=O)n2C)n(C)c1=O,> 4 mM (inactive)
13,CS/C(N)=C\C(C)=O,> 4 mM (inactive)
14,O=C(/C=C/c1ccc(O)c(O)c1)O[C@@H]1C[C@](O)(C(=O)O)C[C@@H](O)[C@H]1O,> 4 mM (inactive)
15,NS(=O)(=O)c1ccc2c(c1)OCCO2,> 4 mM (inactive)
16,Cc1nc(-c2cc(CO)no2)cs1,> 4 mM (inactive)
17,Oc1ccccc1-c1nnco1,> 4 mM (inactive)
18,S=c1ccc(N2CCCCC2)n[nH]1,> 4 mM (inactive)
19,CC1CCCN(C/C(O)=C(\C#N)c2nc3ccccc3[nH]2)C1 (configuration not stated),> 4 mM (inactive)
20,COc1cccc(-c2nc(-c3ccccn3)no2)c1OC,> 4 mM (inactive)
21,Nc1cccc(NC(=O)c2cccs2)c1,> 4 mM (inactive)
22,Cc1nc2ccccc2c(=O)n1/N=C/c1ccco1,> 4 mM (inactive)
23,CCOC(=O)c1c(C)nc2ccccn12,> 4 mM (inactive)
24,CC(=O)OC1CCC23C(=O)OC45CCC(C6=CC(=O)OC6)C4(C)CCC2C5CCC3(O)C1 (configuration not stated),> 4 mM (inactive)

row,SMILES,Kd
1,Nc1ncnc(NCCOCCO)c1[N+](=O)[O-],> 4 mM (inactive)
2,O=C(NC1=NCCS1)c1cccc(F)c1,> 4 mM (inactive)
3,Cc1nc2ccccc2c2c1C(=O)N(N)C2=O,> 4 mM (inactive)
4,NC1=C([N+](=O)[O-])C(=O)c2ccccc21,> 4 mM (inactive)
5,O=C(NCC1CCNCC1)c1ccncc1,> 4 mM (inactive)
6,CC(C)=CCc1c2c(c3occ(-c4ccc(O)cc4)c(=O)c3c1O)C=CC(C)(C)O2,> 4 mM (inactive)
7,Fc1ccc(CN2CCCNCC2)cc1,> 4 mM (inactive)
8,NCc1csc(-c2cccs2)n1,> 4 mM (inactive)
9,O=C(O)c1ccc2c(c1)OCCCO2,> 4 mM (inactive)
10,CCC(C)C(=O)O[C@@H]1C[C@@]2(C)[C@H](c3ccoc3)OC(=O)CC23OC2(C)OC34[C@H](OC(=O)C(C)C)[C@@]3(O)[C@@H](OC(=O)C5(C)OC5C)[C@@]5(C)C[C@]3(O)[C@@](C)([C@H]5CC(=O)OC)C14O2 (some centres not stated),> 4 mM (inactive)
11,CC(=O)NN1C(=O)/C(=C\c2ccc(O)cc2)SC1=S,> 4 mM (inactive)
12,COC(=O)c1cccc(C(F)(F)F)c1,> 4 mM (inactive)
13,O=S1(=O)C=CC(N2CCCCC2)C1 (configuration not stated),> 4 mM (inactive)
14,O=C(/C=C(\O)c1ccccc1)c1ccccc1O,> 4 mM (inactive)
15,C[C@]12CCC3C(CC[C@]4(O)C[C@@H](O)CC[C@]34C=O)[C@@]1(O)CCC2C1=CC(=O)OC1 (some centres not stated),> 4 mM (inactive)
16,CC1(C)CN=C(Nc2nc3ccccc3s2)S1,> 4 mM (inactive)
17,COc1ccc(-c2cc(=O)c3ccccc3o2)cc1OC,> 4 mM (inactive)
18,O=C(O)CNC(=O)c1ccccc1Cl,> 4 mM (inactive)
19,OCc1ccc2occc2c1,> 4 mM (inactive)
20,O=C(Cc1c(F)cccc1Cl)Nc1cccnc1,> 4 mM (inactive)
21,CCn1cnc(C(=O)NC)c1C(=O)NC,> 4 mM (inactive)
22,O=C(CNC(=O)c1cccs1)NC1=NCCS1,> 4 mM (inactive)
23,O=C(Nc1ccon1)c1cc2c(s1)CCCC2,> 4 mM (inactive)
24,C[C@]12CCC(=O)C=C1CCC1C2C(=O)C[C@@]2(C)C1CC[C@]2(O)C(=O)CO (some centres not stated),> 4 mM (inactive)

row,SMILES,Kd
1,O=C(O)c1cccnc1N1CCCC1,> 4 mM (inactive)
2,O=C(Nc1nncs1)c1c(F)cccc1F,> 4 mM (inactive)
3,CC(=O)O[C@H]1CCC2(C)C3=C(CCC2C1(C)C)[C@@]1(C)CC[C@@H](C(C)CCC=C(C)C)[C@]1(C)CC3 (some centres not stated),> 4 mM (inactive)
4,Cc1nc2nc(Cc3ccccc3)nn2c(C)c1Cl,> 4 mM (inactive)
5,O=C(Nc1ccc(N2CCOCC2)cc1)c1cnsn1,> 4 mM (inactive)
6,Nc1ccncc1,> 4 mM (inactive)
7,COc1ccc(-c2cn[nH]c2N)c(OC)c1,> 4 mM (inactive)
8,CC1=C/C(=C\c2c(O)[nH]c(=O)[nH]c2=O)C(C)=N1,> 4 mM (inactive)
9,CN1C(=O)/C(=C/c2ccccc2O)NC1=S,> 4 mM (inactive)
10,Cc1cc(N)n(-c2ccccc2)n1,> 4 mM (inactive)
11,CCCc1nc2ccccc2c2nc(N)nn12,> 4 mM (inactive)
12,CC(=O)Nc1ccc(Cl)c(C(N)=O)c1,> 4 mM (inactive)
13,O=C(COc1ccccc1)N1CCOCC1,inactive
14,O=c1cc(O)n(-c2ccc(F)cc2)c(=S)[nH]1,> 4 mM (inactive)
15,O=c1ccn(Cc2ccccc2)c(=O)[nH]1,> 4 mM (inactive)
16,COC(=O)c1cnccc1C(F)(F)F,> 4 mM (inactive)
17,CNc1nnc(CSc2nc(C)cc(C)n2)s1,> 4 mM (inactive)
18,Cc1occc1C(=O)Nc1ccc2c(c1)CCC2,> 4 mM (inactive)
19,CC(=O)OC1CCC2(C)C3CC(=O)C4(C)C(CC5OC6(CCC(C)CO6)[C@@H](C)C54)C3CC[C@H]2C1 (some centres not stated),> 4 mM (inactive)
20,O=C1CCCC(=O)N1c1ccc(O)cc1,> 4 mM (inactive)
21,c1ccc(-c2noc(-c3ccc4c(c3)OCO4)n2)nc1,> 4 mM (inactive)
22,Nc1ccc(Cc2ccncc2)cc1,> 4 mM (inactive)
23,O=C1c2ccccc2C(=O)N1OCc1ccccc1,> 4 mM (inactive)
24,Nc1ccc2c(c1)OCO2,> 4 mM (inactive)

row,SMILES,Kd
1,NC[C@H]1O[C@H](O[C@H]2[C@H](O)[C@@H](O[C@H]3O[C@H](CO)[C@@H](O)[C@H](N)[C@H]3O)[C@H](N)C[C@@H]2N)[C@H](N)[C@@H](O)[C@@H]1O,> 4 mM (inactive)
2,O=C(c1ccccc1)c1ccccc1C(=O)N1CCOCC1,> 4 mM (inactive)
3,COc1ccc(C(O)c2nccn2C)cc1 (configuration not stated),> 4 mM (inactive)
4,Cn1c(CN)nc2ccccc21,> 4 mM (inactive)
5,Cc1cc(C)c(C#N)c(N2CCCC2)n1,> 4 mM (inactive)
6,Cn1ncc(C(=O)NC2CCCCC2)c1Cl,> 4 mM (inactive)
7,COc1cc(-c2csc(C)n2)ccc1O,> 4 mM (inactive)
8,CCOc1ccc(Cl)cc1S(=O)(=O)N1CCCC1,> 4 mM (inactive)
9,c1ccc(-c2n[nH]c(-c3ccccn3)n2)nc1,> 4 mM (inactive)
10,O=C1CSC(=O)N1CN1CCOCC1,> 4 mM (inactive)
11,OCCNc1ccccn1,> 4 mM (inactive)
12,O=C(c1sc2cccc(Cl)c2c1Cl)N1CCOCC1,inactive
13,COc1ccc(CN2CCC(O)CC2)c(O)c1,> 4 mM (inactive)
14,COC(=O)[C@@H]1CCCCN1C(=O)C(=O)c1cc(OC)c(OC)c(OC)c1,0.003 mM
15,CC(C)NS(=O)(=O)c1ccc(OCC(=O)N2CCOCC2)cc1,inactive
16,CC1=C(/C=C/C(C)=C/C=C/C(C)=C/CO)C(C)(C)CCC1,> 4 mM (inactive)
17,Nc1ccc2c(c1)OCCO2,> 4 mM (inactive)
18,CN1CCN(C(=S)c2ccc(N(C)C)cc2)CC1,> 4 mM (inactive)
19,O=C(NCc1ccncc1)c1cccc(F)c1,inactive
20,CC(C)(C)NC(=O)CN1C(=O)c2ccccc2S1(=O)=O,> 4 mM (inactive)
21,NC(=O)C1CCN(C(=S)Nc2ccccc2)CC1,> 4 mM (inactive)
22,Cc1ccc(N2C(=O)CC(=O)NC2=O)cc1,> 4 mM (inactive)
23,O=C(Nc1cccnc1)N1CCOCC1,> 4 mM (inactive)
24,CCCN1CCC(N2CCC(O)CC2)CC1,> 4 mM (inactive)

row,SMILES,Kd
1,CC(=O)N1CCN(c2ccc(O)cc2)CC1,> 4 mM (inactive)
2,CC1(C)C=Cc2cc3ccc(=O)oc3cc2O1,> 4 mM (inactive)
3,CC(C)CCn1cnc2c1c(=O)n(C)c(=O)n2C,> 4 mM (inactive)
4,O=C(Nc1cccnc1)c1cnn2cccnc12,> 4 mM (inactive)
5,O=C1NNC(=O)C2C3c4ccccc4C(c4ccccc43)C12 (configuration not stated),> 4 mM (inactive)
6,COc1cc(OC)c2c(=O)c(-c3ccc4c(c3)OCO4)coc2c1,> 4 mM (inactive)
7,CC(C)c1ccc(SC(F)(F)C(=O)N2CCOCC2)cc1,0.0028 mM
8,CC[C@H](/C=C/C(C)C1CCC2C3CCC4=CC(=O)CC[C@]4(C)C3CC[C@]12C)C(C)C (some centres not stated),> 4 mM (inactive)
9,O=C(O)C1CSC(c2cccnc2)N1 (configuration not stated),> 4 mM (inactive)
10,O=C(O)CNS(=O)(=O)c1cccs1,> 4 mM (inactive)
11,Nc1nc(-c2ccccc2)ns1,> 4 mM (inactive)
12,CN1C(=O)c2ccc(C(=O)NC3CCCCC3)cc2C1=O,> 4 mM (inactive)
13,Cc1[nH]c(=O)[nH]c(=O)c1N1CCOCC1,> 4 mM (inactive)
14,O=C(O)CSc1nc2ccccc2c(=O)[nH]1,> 4 mM (inactive)
15,O=C(NCc1cccs1)c1nn2cccnc2c1Cl,> 4 mM (inactive)
16,Cc1nc2ccccc2c(=O)n1NC(=O)C1CCCCC1,> 4 mM (inactive)
17,CC1CN(C(=O)c2ccncc2)CC(C)O1 (configuration not stated),> 4 mM (inactive)
18,CNC(=O)C(=O)Nc1c(C)cccc1C,> 4 mM (inactive)
19,CC1=C(/C=C/C(C)=C/C=C/C(C)=C/C=C/C=C(C)/C=C/C=C(C)/C=C/C2=C(C)CCCC2(C)C)C(C)(C)CCC1,> 4 mM (inactive)
20,NCc1ccc(-n2cccc2)cc1,> 4 mM (inactive)
21,O=C1NC(=O)C(=Cc2ccccc2)C(=O)N1,> 4 mM (inactive)
